HELM strings list units from the 5' end as sugar, base in round brackets, then linkage (d deoxyribose, r ribose, m 2'-O-methyl, p phosphodiester). Strings are as the collection lists them; they lack the last nucleoside at the 3' end of the tested compound. [moe] = 2'-O-(2-methoxyethyl) (MOE); [sp] = phosphorothioate linkage; [m5C] = 5-methylcytosine
biological target: PRNP; assay: mouse, dose not given; details: ASO

Substance | 3 h FOB score
RNA1{[moe]([m5C])[sp].[moe](T)p.[moe](T)p.[moe](T)p.[moe]([m5C])[sp].d([m5C])[sp].d(T)[sp].d(G)[sp].d(A)[sp].d(T)[sp].d(A)[sp].d(G)[sp].d(T)[sp].d(T)[sp].d([m5C])[sp].[moe](A)p.[moe]([m5C])p.[moe](T)[sp].[moe](G)}$$$$ (last 3' nucleoside missing) | 2.5 score 0-7
RNA1{[moe]([m5C])[sp].[moe](T)p.[moe]([m5C])p.[moe](A)p.[moe](G)[sp].d(G)[sp].d(T)[sp].d([m5C])[sp].d(T)[sp].d(A)[sp].d([m5C])[sp].d(T)[sp].d([m5C])[sp].d(T)[sp].d(A)[sp].[moe](T)p.[moe](G)p.[moe](T)[sp].[moe](T)}$$$$ (last 3' nucleoside missing) | 0 score 0-7
RNA1{[moe]([m5C])[sp].[moe](T)p.[moe]([m5C])p.[moe](T)p.[moe](A)[sp].d(T)[sp].d(G)[sp].d(T)[sp].d(T)[sp].d(T)[sp].d(T)[sp].d([m5C])[sp].d([m5C])[sp].[moe](A)p.[moe](G)p.[moe](T)[sp].[moe](G)}$$$$ (last 3' nucleoside missing) | 0.75 score 0-7
RNA1{[moe]([m5C])[sp].[moe](T)p.[moe]([m5C])p.[moe](T)p.[moe](A)[sp].d(T)[sp].d(G)[sp].d(T)[sp].d(T)[sp].d(T)[sp].d(T)[sp].d([m5C])[sp].d([m5C])[sp].d(A)[sp].d(G)[sp].[moe](T)p.[moe](G)p.[moe]([m5C])[sp].[moe]([m5C])}$$$$ (last 3' nucleoside missing) | 1 score 0-7
RNA1{[moe]([m5C])[sp].[moe](T)p.[moe]([m5C])p.[moe](T)p.[moe](A)p.[moe](T)p.d(G)[sp].d(T)[sp].d(T)[sp].d(T)[sp].d(T)[sp].d([m5C])[sp].d([m5C])[sp].d(A)[sp].d(G)[sp].d(T)[sp].[moe](G)p.[moe]([m5C])[sp].[moe]([m5C])}$$$$ (last 3' nucleoside missing) | 2 score 0-7
RNA1{[moe]([m5C])[sp].[moe](T)p.[moe]([m5C])p.[moe](T)p.[moe](A)p.d(T)[sp].d(G)[sp].d(T)[sp].d(T)[sp].d(T)[sp].d(T)[sp].d([m5C])[sp].d([m5C])[sp].d(A)[sp].[moe](G)[sp].[moe](T)p.[moe](G)p.[moe]([m5C])}$$$$ (last 3' nucleoside missing) | 1 score 0-7
RNA1{[moe]([m5C])[sp].[moe](T)p.[moe]([m5C])p.[moe](T)p.[moe](A)p.d(T)[sp].d(G)[sp].d(T)[sp].d(T)[sp].d(T)[sp].d(T)[sp].d([m5C])[sp].d([m5C])[sp].d(A)[sp].[moe](G)p.[moe](T)p.[moe](G)[sp].[moe]([m5C])}$$$$ (last 3' nucleoside missing) | 0.25 score 0-7
RNA1{[moe]([m5C])[sp].[moe](T)p.[moe]([m5C])p.[moe](T)p.d(A)[sp].d(T)[sp].d(G)[sp].d(T)[sp].d(T)[sp].d(T)[sp].d(T)[sp].d([m5C])[sp].d([m5C])[sp].d(A)[sp].[moe](G)p.[moe](T)p.[moe](G)p.[moe]([m5C])[sp].[moe]([m5C])}$$$$ (last 3' nucleoside missing) | 3.25 score 0-7
RNA1{[moe]([m5C])[sp].[moe](T)p.[moe]([m5C])p.d(T)[sp].d(A)[sp].d(T)[sp].d(G)[sp].d(T)[sp].d(T)[sp].d(T)[sp].d(T)[sp].d([m5C])[sp].d([m5C])[sp].[moe](A)p.[moe](G)p.[moe](T)p.[moe](G)p.[moe]([m5C])[sp].[moe]([m5C])}$$$$ (last 3' nucleoside missing) | 3 score 0-7
RNA1{[moe]([m5C])[sp].[moe]([m5C])p.[moe](A)p.[moe](G)p.[moe](A)[sp].d(A)[sp].d(G)[sp].d(T)[sp].d(T)[sp].d(T)[sp].d(A)[sp].d(A)[sp].d([m5C])[sp].d(A)[sp].d(T)[sp].[moe](A)p.[moe](T)p.[moe](T)[sp].[moe](T)}$$$$ (last 3' nucleoside missing) | 0 score 0-7
RNA1{[moe]([m5C])[sp].[moe]([m5C])p.[moe](A)p.[moe](G)p.[moe](A)[sp].d(G)[sp].d(G)[sp].d(T)[sp].d(T)[sp].d([m5C])[sp].d(A)[sp].d(G)[sp].d(T)[sp].d(G)[sp].d(T)[sp].[moe](T)p.[moe](G)p.[moe](T)[sp].[moe](G)}$$$$ (last 3' nucleoside missing) | 6.25 score 0-7
RNA1{[moe]([m5C])[sp].[moe]([m5C])p.[moe](A)p.[moe](T)p.[moe](T)[sp].d(T)[sp].d(T)[sp].d([m5C])[sp].d(T)[sp].d(G)[sp].d(T)[sp].d(G)[sp].d([m5C])[sp].d(T)[sp].d(T)[sp].[moe](T)p.[moe](T)p.[moe]([m5C])[sp].[moe]([m5C])}$$$$ (last 3' nucleoside missing) | 4 score 0-7
RNA1{[moe]([m5C])[sp].[moe]([m5C])p.[moe](A)p.[moe]([m5C])p.[moe](A)[sp].d(T)[sp].d(A)[sp].d(T)[sp].d(A)[sp].d(G)[sp].d(G)[sp].d(G)[sp].d(T)[sp].d([m5C])[sp].d([m5C])[sp].[moe](T)p.[moe](T)p.[moe](T)[sp].[moe](A)}$$$$ (last 3' nucleoside missing) | 1.5 score 0-7
RNA1{[moe]([m5C])[sp].[moe]([m5C])p.[moe](G)p.[moe](T)p.[moe](T)[sp].d([m5C])[sp].d(A)[sp].d(T)[sp].d([m5C])[sp].d(T)[sp].d(T)[sp].d(A)[sp].d(T)[sp].d(T)[sp].d([m5C])[sp].[moe]([m5C])p.[moe]([m5C])p.[moe](A)[sp].[moe](T)}$$$$ (last 3' nucleoside missing) | 0 score 0-7
RNA1{[moe]([m5C])[sp].[moe]([m5C])p.[moe](T)p.[moe](G)p.[moe](T)[sp].d(T)[sp].d(A)[sp].d(A)[sp].d(T)[sp].d(G)[sp].d(G)[sp].d(T)[sp].d(G)[sp].d(T)[sp].d([m5C])[sp].[moe]([m5C])p.[moe](A)p.[moe]([m5C])[sp].[moe](T)}$$$$ (last 3' nucleoside missing) | 2.5 score 0-7
RNA1{[moe]([m5C])[sp].[moe]([m5C])p.[moe](T)p.[moe](T)p.[moe](T)[sp].d([m5C])[sp].d(A)[sp].d(T)[sp].d(A)[sp].d(T)[sp].d(A)[sp].d(T)[sp].d(G)[sp].d(T)[sp].d(T)[sp].[moe](A)p.[moe]([m5C])p.[moe](A)[sp].[moe](G)}$$$$ (last 3' nucleoside missing) | 5 score 0-7
RNA1{[moe]([m5C])[sp].[moe]([m5C])p.[moe]([m5C])p.[moe](A)p.[moe](G)[sp].d(T)[sp].d(G)[sp].d(T)[sp].d(T)[sp].d([m5C])[sp].d([m5C])[sp].d(A)[sp].d(T)[sp].d([m5C])[sp].d([m5C])[sp].[moe](T)p.[moe]([m5C])p.[moe]([m5C])[sp].[moe](A)}$$$$ (last 3' nucleoside missing) | 2 score 0-7
RNA1{[moe]([m5C])[sp].[moe]([m5C])p.[moe]([m5C])p.[moe]([m5C])p.[moe](A)[sp].d(G)[sp].d(T)[sp].d(G)[sp].d(T)[sp].d(T)[sp].d([m5C])[sp].d([m5C])[sp].d(A)[sp].d(T)[sp].d([m5C])[sp].[moe]([m5C])p.[moe](T)p.[moe]([m5C])[sp].[moe]([m5C])}$$$$ (last 3' nucleoside missing) | 0 score 0-7
